Results taken from ChEMBL document CHEMBL1148729, “Specific plant terpenoids and lignoids possess potent antiviral activities against severe acute respiratory syndrome coronavirus” (J Med Chem, 2007).

Experiments:
[1] = tested on: SARS-CoV; assay: Inhibition of SARS coronavirus-induced cytopathogenicity in Vero E6 cells at 20 uM; format: functional; settings: Severe acute respiratory syndrome-related coronavirus
[2] = tested on: SARS-CoV; assay: Inhibition of SARS coronavirus-induced cytopathogenicity in Vero E6 cells at 10 uM; format: functional; settings: Severe acute respiratory syndrome-related coronavirus
[3] = Cytotoxicity against Vero E6 cells by MTT assay; format: cell-based; settings: chlorocebus sabaeus
[4] = tested on: SARS-CoV; assay: Antiviral activity against SARS coronavirus in Vero E6 cells assessed as inhibition of viral replication by ELISA; format: functional, organism-based; settings: Severe acute respiratory syndrome-related coronavirus
[5] = tested on: SARS-CoV; assay: Inhibition of SARS virus-induced cytopathogenicity in Vero E6 cells at 3.3 uM; format: functional; settings: Severe acute respiratory syndrome-related coronavirus
[6] = Selectivity index, Ratio of CC50 for Vero E6 cells to EC50 for SARS coronavirus; format: functional
[7] = tested on: SARS-CoV; assay: Inhibition of SARS virus-induced cytopathogenicity in Vero E6 cells at 1 uM; format: functional; settings: Severe acute respiratory syndrome-related coronavirus
[8] = biological target: Replicase polyprotein 1a (Severe acute respiratory syndrome-related coronavirus, UniProt P0C6U8); assay: Inhibition of SARS coronavirus 3CL protease

Compound	inhibition at 20 µM [1] [%]	inhibition at 10 µM [2] [%]	CC50 [3] [µM]	EC50 [4] [µM]	inhibition at 3.3 µM [5] [%]	Ratio CC50/EC50 [6]	inhibition at 1 µM [7] [%]	IC50 [8] [µM]	Ki [8] [µM]
COc1cc(C2c3cc(OC(=O)c4ccccc4)c(OC)cc3C[C@@H](CO)[C@@H]2CO)ccc1OC(=O)c1ccccc1 (stereo not given in full)	< 25	< 25							
CC(=O)Oc1cc2c(cc1C(C)C)C=C[C@H]1C(C)(C)[C@@H](OC(C)=O)CC[C@]21C	< 25	25	303	1.57	25	193			
CC(C)C1=C(O)C(=O)C2=C(C=C[C@H]3C(C)(C)CCC[C@]23C)C1=O	< 25	25	89.7	5.55		16.2			
CC(C)C1=C[C@]2(O)CC[C@H]3C(C)(C)CCC[C@]3(C)C2=CC1=O	< 25	< 25	> 750	1.47	50	>510			
COc1c(C(C)C)cc2c(c1O)[C@@]1(C)CCCC(C)(C)[C@@H]1C[C@@H]2O	< 25	< 25	127	1.15		111			
C[C@@H]1CC[C@H]2[C@@](C)(CO)[C@H]3C[C@@]12CC[C@@]3(C)O	< 25	25	> 750	> 10	50				
CC(C)c1ccc2c(c1)C(=O)C[C@H]1C(C)(C)CCC[C@]21C	< 25	< 25	305	4		76.3			
CC1=C[C@@H]2[C@@H](CC1)[C@](C)(O)CC[C@H]2C(C)C	< 25	25	76.8	4.44	25	17.3	50		
C=C(C)[C@@H]1CC[C@]2(C(=O)O)CC[C@]3(C)[C@H](CC[C@@H]4[C@@]5(C)CC[C@H](O)C(C)(C)[C@@H]5CC[C@]43C)[C@@H]12 [BETULINIC ACID]	< 25	25	150	> 10	50	<15		10	8.2
C=C(C)[C@@H]1CC[C@]2(C(=O)O)CC[C@]3(C)[C@H](CC[C@@H]4[C@@]5(C)CCC(=O)C(C)(C)[C@@H]5CC[C@]43C)[C@@H]12 [BETUNOLIC ACID]	< 25	< 25	112	0.63		180		> 100	
C=C[C@@]1(C)CC(=O)[C@]2(O)[C@@]3(C)[C@@H](O)CCC(C)(C)[C@@H]3[C@H](O)[C@H](OC(C)=O)[C@@]2(C)O1 [COLFORSIN]	< 25	25	674	7.5	50	89.8			
COc1c(C(C)C)cc2c(c1O)[C@@]1(C)CCCC(C)(C)[C@@H]1CC2=O [CRYPTOJAPONOL]	< 25	< 25	78.5	> 10		<7.9			
COc1cc(/C=C/C(=O)CC(=O)/C=C/c2ccc(O)c(OC)c2)ccc1O [CURCUMIN]	25	50	> 250	> 10				40	
CC(C)c1cc2c(cc1O)[C@@]1(C)CCCC(C)(C)[C@@H]1CC2 [FERRUGINOL]	< 25	< 25	80.4	1.39	25	58			
O=C1OC[C@H](Cc2ccc3c(c2)OCO3)[C@H]1Cc1ccc2c(c1)OCO2 [HINOKININ]	< 25	25	> 750	> 10	25		50	> 100	
C=CCc1ccc(O)c(-c2ccc(O)c(CC=C)c2)c1 [HONOKIOL]	< 25	< 25	88.9	6.5	25	13.7			
C=CCc1ccc(O)c(-c2cc(CC=C)ccc2O)c1 [MAGNOLOL]	< 25	< 25	68.3	3.8	50	18			
O=C(Nc1ccc([N+](=O)[O-])cc1Cl)c1cc(Cl)ccc1O [NICLOSAMIDE]	< 25	25	22.1	< 0.1	25	>221	50	40	
C=C1CC[C@@H]2[C@](C)(CCC[C@]2(C)C(=O)O)[C@H]1CCC1=CCOC1=O [PINUSOLIDIC ACID]	< 25	< 25	> 750	4.71		>159			
O=C1OC[C@H](Cc2ccc3c(c2)OCO3)/C1=C\c1ccc2c(c1)OCO2 [SAVININ]	< 25	< 25	> 750	1.13		>667		25	9.1
CC(C)c1cc2c(cc1O)[C@@]1(C)CCCC(C)(C)[C@@H]1CC2=O [SUGIOL]	< 25	< 25							
CC(C)[C@@H]1NC(=O)[C@H](C)OC(=O)[C@@H](C(C)C)NC(=O)[C@@H](C(C)C)OC(=O)[C@H](C(C)C)NC(=O)[C@H](C)OC(=O)[C@@H](C(C)C)NC(=O)[C@@H](C(C)C)OC(=O)[C@H](C(C)C)NC(=O)[C@H](C)OC(=O)[C@@H](C(C)C)NC(=O)[C@@H](C(C)C)OC1=O [VALINOMYCIN]	< 25	25	67.5	1.63	25	41.4	50		
